# Assay results from paper PMC11620503 (Antimicrobial Agents and Chemotherapy, 2024).
# Where two headings read alike, the source gives them in different places.
# How the values were obtained:
# [1] = system: Prevotella buccae KUB2992; experiment: MIC, agar dilution, reference strains of anaerobic bacteria; format: cell-based; settings: Segatella buccae
# [2] = system: Prevotella histicola KUB2989; experiment: as above; format: cell-based
# [3] = system: Bacteroides thetaiotaomicron KUB2984; experiment: as above; format: cell-based
# [4] = system: Clostridioides difficile ATCC 700057; experiment: as above; format: cell-based; settings: ATCC700057
# [5] = system: Bacteroides fragilis KUB2983; experiment: as above; format: cell-based
# Atopobium rimae KUB3014 = experiment: as above; format: cell-based; settings: Lancefieldella rimae
# [6] = system: Finegoldia magna ATCC 29328; experiment: as above; format: cell-based; settings: ATCC29328
# [7] = system: Clostridioides difficile ATCC 43255; experiment: as above; format: cell-based; settings: ATCC43255
# [8] = system: Peptostreptococcus anaerobius ATCC 27337; experiment: as above; format: cell-based; settings: ATCC27337
# [9] = system: Fusobacterium nucleatum ATCC 25586; experiment: as above; format: cell-based; settings: ATCC25586
# [10] = system: Prevotella melaninogenica KUB3005; experiment: as above; format: cell-based
# [11] = system: Bacteroides fragilis ATCC 25285; experiment: as above; format: cell-based; settings: ATCC25285
# [12] = system: Actinomyces odontolyticus ATCC 17929; experiment: as above; format: cell-based; settings: Schaalia odontolytica, ATCC17929
# Parvimonas micra KUB3000 = experiment: as above; format: cell-based
# [13] = system: Clostridium perfringens ATCC 13124; experiment: microbe, parasite or virus in culture; format: cell-based; settings: ATCC13124
# [14] = system: Bacteroides thetaiotaomicron ATCC 29741; experiment: MIC, agar dilution, reference strains of anaerobic bacteria; format: cell-based; settings: ATCC29741
# [15] = system: Clostridioides difficile ATCC BAA-1803; experiment: as above; format: cell-based; settings: ATCCBAA1803
# [16] = system: Peptoniphilus asaccharolyticus ATCC 14963; experiment: as above; format: cell-based; settings: ATCC14963
# [17] = system: Bulleidia extructa KUB3013; experiment: as above; format: cell-based
# [18] = system: Clostridioides difficile ATCC BAA-1870; experiment: as above; format: cell-based; settings: ATCCBAA1870
# [19] = system: Eggerthella lenta ATCC 43055; experiment: as above; format: cell-based; settings: ATCC43055
# [20] = system: Bacteroides fragilis KUB2982; experiment: as above; format: cell-based
# [21] = system: Fusobacterium varium ATCC 27725; experiment: as above; format: cell-based; settings: ATCC27725
# Olsenella uli KUB3012 = experiment: as above; format: cell-based
# [22] = system: Bacteroides ovatus KUB3009; experiment: as above; format: cell-based
# [23] = system: Propionibacterium acnes ATCC 11827; experiment: as above; format: cell-based; settings: Cutibacterium acnes, ATCC11827
# [24] = system: Prevotella intermedia KUB2991; experiment: as above; format: cell-based
# [25] = in humans; cited from earlier work
# [26] = system: MEM-, imipenem/relebactam-, and ceftolozane/tazobactam-nonsusceptible P. aeruginosa; experiment: MIC, broth microdilution; format: cell-based, Pseudomonas aeruginosa; settings: for MIC50 / MIC90: Pseudomonas aeruginosa; for MIC50: read-out: MIC50; for MIC90: read-out: MIC90
# [27] = system: MEM-nonsusceptible Enterobacterales with metallo-carbapenemases; experiment: MIC, broth microdilution; format: cell-based; settings: MEM-nonsusceptible Enterobacterales with metallo-carbapenemases (41), CDC AR Bank; for MIC50 / MIC90: fixed concentration (μg/mL) in label; for MIC50: read-out: MIC50; for MIC90: read-out: MIC90
# [28] = system: Enterobacterales (154), CDC AR Bank; experiment: MIC, broth microdilution; format: cell-based
# [29] = system: E. coli CDC-151 (NDM-5), PBP3 mutations; experiment: MIC, broth microdilution; format: cell-based; settings: Escherichia coli, fixed BLI concentration (μg/mL) in parentheses in label
# 96 P. aeruginosa = experiment: MIC, broth microdilution; format: cell-based, Pseudomonas aeruginosa; settings: Pseudomonas aeruginosa (96)
# [30] = system: serine-carbapenemase-producing isolates (Enterobacterales); experiment: MIC, broth microdilution; format: cell-based; settings: Enterobacterales with serine-carbapenemases (61), CDC AR Bank
# [31] = system: Cefepime/taniborbactam-nonsusceptible Enterobacterales with metallo-carbapenemases (25); experiment: MIC, broth microdilution; format: cell-based; settings: CDC AR Bank; for MIC50 / MIC90: fixed concentration (μg/mL) in label
# [32] = system: E. coli CDC-119 (NDM-1), PBP3 mutations; experiment: MIC, broth microdilution; format: cell-based; settings: Escherichia coli
# [33] = system: E. coli CDC-149 (NDM-7), PBP3 mutations; experiment: MIC, broth microdilution; format: cell-based; settings: Escherichia coli
# [34] = system: MEM-nonsusceptible Enterobacterales; experiment: MIC, broth microdilution; format: cell-based; settings: MEM-nonsusceptible Enterobacterales (92), CDC AR Bank
# [35] = system: 55 isolates of A. baumannii; experiment: MIC, broth microdilution; format: cell-based, Acinetobacter baumannii; settings: Acinetobacter baumannii (55), fixed concentration (μg/mL) in label
# [36] = system: E. coli CDC-150 (NDM-5), PBP3 mutations; experiment: MIC, broth microdilution; format: cell-based; settings: Escherichia coli, fixed BLI concentration (μg/mL) in parentheses in label
# [37] = system: E. coli CDC-435 (NDM-1), PBP3 mutations; experiment: MIC, broth microdilution; format: cell-based; settings: Escherichia coli, fixed BLI concentration (μg/mL) in parentheses in label
# [38] = system: MEM-nonsusceptible Enterobacterales with serine-carbapenemases; experiment: MIC, broth microdilution; format: cell-based; settings: MEM-nonsusceptible Enterobacterales with serine-carbapenemases (42), CDC AR Bank
# [39] = system: E. coli CDC-137 (NDM-6), PBP3 mutations; experiment: MIC, broth microdilution; format: cell-based; settings: Escherichia coli, fixed BLI concentration (μg/mL) in parentheses in label
# [40] = system: E. coli CDC-162 (NDM-7), PBP3 mutations; experiment: MIC, broth microdilution; format: cell-based; settings: Escherichia coli
# [41] = system: MBL-producing isolates (Enterobacterales); experiment: MIC, broth microdilution; format: cell-based; settings: Enterobacterales with metallo-carbapenemases (47), CDC AR Bank, fixed concentration (μg/mL) in label
# [42] = system: Acinetobacter baumannii (46); experiment: MIC, broth microdilution; format: cell-based
# [43] = Imipenem/relebactam-nonsusceptible Pseudomonas aeruginosa (43), CLSI breakpoints, marked c: breakpoints for β-lactam alone
# [44] = MEM-nonsusceptible Pseudomonas aeruginosa (76), CLSI breakpoints, marked c: breakpoints for β-lactam alone
# [45] = Imipenem/relebactam-nonsusceptible Pseudomonas aeruginosa (43), fixed concentration (μg/mL) in label
# [46] = MEM-nonsusceptible Pseudomonas aeruginosa (76), fixed concentration (μg/mL) in label
# [47] = CLSI breakpoints, marked c: breakpoints for β-lactam alone
# [48] = fixed concentration (μg/mL) in label
# [49] = fixed concentration (μg/mL) in label, read-out: MIC50
# [50] = fixed concentration (μg/mL) in label, read-out: MIC90
smiles,measurement,setting,value
"Cc1ncc([N+](=O)[O-])n1CCO [Metronidazole, metronidazole]",MIC,[1],2 µg/mL
same,MIC,[2],2 µg/mL
same,MIC,[3],1 µg/mL
same,MIC,[4],0.5 µg/mL
same,MIC,[5],0.5 µg/mL
same,MIC,Atopobium rimae KUB3014,1 µg/mL
same,MIC,[6],2 µg/mL
same,MIC,[7],1 µg/mL
same,MIC,[8],0.5 µg/mL
same,MIC,[9],≤ 0.125 µg/mL
same,MIC,[10],1 µg/mL
same,MIC,[11],1 µg/mL
same,MIC,[12],> 64 µg/mL
same,MIC,Parvimonas micra KUB3000,0.5 µg/mL
same,MIC,[13],2 µg/mL
same,MIC,[14],2 µg/mL
same,MIC,[15],2 µg/mL
same,MIC,[16],1 µg/mL
same,MIC,[17],2 µg/mL
same,MIC,[18],1 µg/mL
same,MIC,[19],1 µg/mL
same,MIC,[20],2 µg/mL
same,MIC,[21],0.5 µg/mL
same,MIC,Olsenella uli KUB3012,4 µg/mL
same,MIC,[22],1 µg/mL
same,MIC,[23],> 64 µg/mL
same,MIC,[24],1 µg/mL
O=C(O)c1c(F)ccc2c1OB(O)[C@@H]1C[C@H]21 [xeruborbactam],protein binding rate,[25],over 90%
"C[C@H]1[C@H](NC(=O)/C(=N\OC(C)(C)C(=O)O)c2csc(N)n2)C(=O)N1S(=O)(=O)O [ATM, aztreonam]",CLSI MIC interpretation (%) I,"[26]; I, intermediate (including susceptible dose-dependent), CLSI breakpoints, last subgroup of Table 2",8.9%
same,CLSI MIC interpretation I (intermediate),[26]; [43],9.3%
same,CLSI MIC interpretation R (resistant),[26]; [43],60.5%
same,CLSI MIC interpretation S (susceptible),[26]; [43],30.2%
same,CLSI MIC interpretation R (resistant),[26]; [44],56.6%
same,CLSI MIC interpretation S (susceptible),[26]; [44],30.3%
same,MIC50,[26]; [45],32 µg/mL
same,MIC90,[26]; [45],> 64 µg/mL
same,MIC50,[26]; [46],32 µg/mL
same,MIC90,[26]; [46],> 64 µg/mL
same,MIC50,"[26]; Table 2, broth microdilution",32 µg/mL
same,MIC90,"[26]; Table 2, broth microdilution",> 64 µg/mL
same,CLSI MIC interpretation (%) R,"[26]; R, resistant, CLSI breakpoints, last subgroup of Table 2",62.2%
same,CLSI MIC interpretation (%) S,"[26]; S, susceptible, CLSI breakpoints, last subgroup of Table 2",28.9%
same,CLSI MIC interpretation I (intermediate),[27]; [47],0%
same,CLSI MIC interpretation R (resistant),[27]; [47],85.4%
same,CLSI MIC interpretation S (susceptible),[27]; [47],14.6%
same,MIC50,[27],> 64 µg/mL
same,MIC90,[27],> 64 µg/mL
same,CLSI MIC interpretation I (intermediate),[28]; [47],2.6%
same,CLSI MIC interpretation R (resistant),[28]; [47],80.5%
same,CLSI MIC interpretation S (susceptible),[28]; [47],16.9%
same,MIC50,[28]; [48],> 64 µg/mL
same,MIC90,[28]; [48],> 64 µg/mL
same,MIC,[29],32 µg/mL
same,CLSI MIC interpretation R (resistant),96 P. aeruginosa; [47],47.9%
same,CLSI MIC interpretation S (susceptible),96 P. aeruginosa; [47],39.6%
same,MIC50,96 P. aeruginosa; [49],16 µg/mL
same,MIC90,96 P. aeruginosa; [50],> 64 µg/mL
same,CLSI MIC interpretation I (intermediate),[30]; [47],3.3%
same,CLSI MIC interpretation R (resistant),[30]; [47],85.2%
same,CLSI MIC interpretation S (susceptible),[30]; [47],11.5%
same,MIC50,[30]; [49],> 64 µg/mL
same,MIC90,[30]; [50],> 64 µg/mL
same,CLSI MIC interpretation I (intermediate),[31]; [47],0%
same,CLSI MIC interpretation R (resistant),[31]; [47],96%
same,CLSI MIC interpretation S (susceptible),[31]; [47],4%
same,MIC50,[31],> 64 µg/mL
same,MIC90,[31],> 64 µg/mL
same,MIC,[32],> 64 µg/mL
same,MIC,[33],0.5 µg/mL
same,CLSI MIC interpretation I (intermediate),[34]; [47],1.1%
same,CLSI MIC interpretation R (resistant),[34]; [47],90.2%
same,CLSI MIC interpretation S (susceptible),[34]; [47],8.7%
same,MIC50,[34]; [49],> 64 µg/mL
same,MIC90,[34]; [50],> 64 µg/mL
same,MIC50,[35]; read-out: MIC50,64 µg/mL
same,MIC90,[35]; read-out: MIC90,> 64 µg/mL
same,MIC,[36],32 µg/mL
same,MIC,[37],> 64 µg/mL
same,CLSI MIC interpretation I (intermediate),[38]; [47],2.4%
same,CLSI MIC interpretation R (resistant),[38]; [47],92.9%
same,CLSI MIC interpretation S (susceptible),[38]; [47],4.8%
same,MIC50,[38]; [49],> 64 µg/mL
same,MIC90,[38]; [50],> 64 µg/mL
same,MIC,[39],> 64 µg/mL
same,MIC,[40],> 64 µg/mL
"CO/N=C(\C(=O)N[C@@H]1C(=O)N2C(C(=O)[O-])=C(C[N+]3(C)CCCC3)CS[C@H]12)c1csc(N)n1 [FEP, cefepime]",MIC50,[27],> 64 µg/mL
same,MIC90,[27],> 64 µg/mL
same,MIC,[29],> 64 µg/mL
same,MIC50,[41]; read-out: MIC50,> 64 µg/mL
same,MIC90,[41]; read-out: MIC90,> 64 µg/mL
same,MIC50,[31],> 64 µg/mL
same,MIC90,[31],> 64 µg/mL
same,MIC,[32],> 64 µg/mL
same,MIC,[33],> 64 µg/mL
same,MIC,[36],> 64 µg/mL
same,MIC,[37],> 64 µg/mL
same,MIC,[39],> 64 µg/mL
same,CLSI MIC interpretation I (intermediate),[42]; [47],4.3%
same,CLSI MIC interpretation R (resistant),[42]; [47],95.7%
same,CLSI MIC interpretation S (susceptible),[42]; [47],0%
same,MIC50,[42]; [48],64 µg/mL
same,MIC90,[42]; [48],> 256 µg/mL
same,MIC,[40],> 64 µg/mL
